Experimental data published in ChEMBL document CHEMBL1909046, “DrugMatrix in vitro pharmacology data”.

Tests used:
[1] = target: T1, Alpha-2A adrenergic receptor (Homo sapiens, UniProt P08913); format: cell membranes, Sf9, Membrane; further: in other assays of this panel Not Active means under 50% inhibition at 10 µM
T1 sequence (P08913 whole entry): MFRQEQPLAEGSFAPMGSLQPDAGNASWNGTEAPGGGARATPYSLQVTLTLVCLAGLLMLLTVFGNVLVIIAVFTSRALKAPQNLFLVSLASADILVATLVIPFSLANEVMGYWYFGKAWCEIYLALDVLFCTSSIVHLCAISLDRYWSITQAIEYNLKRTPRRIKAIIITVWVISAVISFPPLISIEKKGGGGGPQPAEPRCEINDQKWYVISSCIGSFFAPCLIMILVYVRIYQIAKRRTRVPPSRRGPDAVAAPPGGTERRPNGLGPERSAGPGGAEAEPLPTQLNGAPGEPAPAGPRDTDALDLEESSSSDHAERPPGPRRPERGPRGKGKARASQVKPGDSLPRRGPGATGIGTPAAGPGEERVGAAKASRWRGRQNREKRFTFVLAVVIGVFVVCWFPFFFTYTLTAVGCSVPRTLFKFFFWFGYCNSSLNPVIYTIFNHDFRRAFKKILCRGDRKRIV

[2] = target: C-C chemokine receptor type 2 (Homo sapiens, UniProt P41597); format: cell membranes, Membrane; conditions: cho-k1; further: in other assays of this panel Not Active means under 50% inhibition at 10 µM
[3] = target: C-C chemokine receptor type 5 (Homo sapiens, UniProt P51681); format: cell membranes, Membrane; conditions: hek293; further: in other assays of this panel Not Active means under 50% inhibition at 10 µM
Substance-K receptor = target: T2, Substance-K receptor (Homo sapiens, UniProt P21452); format: cell membranes, CHO, Membrane; conditions: cho; further: in other assays of this panel Not Active means under 50% inhibition at 10 µM
T2 sequence (P21452 whole entry): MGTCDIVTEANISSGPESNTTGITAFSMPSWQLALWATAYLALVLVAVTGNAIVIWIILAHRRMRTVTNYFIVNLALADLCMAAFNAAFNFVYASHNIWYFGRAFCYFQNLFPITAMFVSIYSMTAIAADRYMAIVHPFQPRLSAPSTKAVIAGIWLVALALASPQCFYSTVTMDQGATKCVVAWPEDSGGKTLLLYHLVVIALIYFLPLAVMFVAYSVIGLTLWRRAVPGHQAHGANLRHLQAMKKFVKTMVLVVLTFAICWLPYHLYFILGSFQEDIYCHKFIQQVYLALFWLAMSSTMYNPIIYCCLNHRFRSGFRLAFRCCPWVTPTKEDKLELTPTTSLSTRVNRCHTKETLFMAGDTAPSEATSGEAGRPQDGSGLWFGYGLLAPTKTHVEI

[4] = target: Mitogen-activated protein kinase 14 (Homo sapiens, UniProt Q16539); design: species or system Escherichia coli
[5] = DRUGMATRIX: Glutamate, Kainate radioligand binding (ligand: [3H] Kainic acid); format: cell membranes, Rattus norvegicus, Wistar, Brain, Membrane; conditions: Not Active = under 50% inhibition at 10 µM

Sequence of C-C chemokine receptor type 5 (P51681 whole entry): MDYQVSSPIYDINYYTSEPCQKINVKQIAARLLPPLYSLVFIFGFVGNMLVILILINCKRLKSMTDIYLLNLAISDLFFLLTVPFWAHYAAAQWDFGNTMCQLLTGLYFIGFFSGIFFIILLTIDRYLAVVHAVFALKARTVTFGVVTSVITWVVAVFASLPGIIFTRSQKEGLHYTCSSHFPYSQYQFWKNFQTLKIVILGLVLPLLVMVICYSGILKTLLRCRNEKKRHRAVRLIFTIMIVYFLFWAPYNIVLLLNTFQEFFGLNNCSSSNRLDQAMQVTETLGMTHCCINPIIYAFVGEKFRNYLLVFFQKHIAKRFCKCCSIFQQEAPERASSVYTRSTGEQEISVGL
Sequence of C-C chemokine receptor type 2 (P41597 whole entry): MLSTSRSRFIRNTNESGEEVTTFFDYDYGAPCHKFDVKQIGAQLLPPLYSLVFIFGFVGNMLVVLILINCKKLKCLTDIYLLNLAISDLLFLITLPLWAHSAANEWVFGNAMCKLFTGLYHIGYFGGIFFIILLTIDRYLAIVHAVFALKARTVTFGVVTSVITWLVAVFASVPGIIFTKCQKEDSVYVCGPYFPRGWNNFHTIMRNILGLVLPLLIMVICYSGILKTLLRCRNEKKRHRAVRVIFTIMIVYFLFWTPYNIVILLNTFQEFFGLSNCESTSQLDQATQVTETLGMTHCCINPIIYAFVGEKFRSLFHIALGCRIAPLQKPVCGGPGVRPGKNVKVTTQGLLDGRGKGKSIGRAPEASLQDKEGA
Sequence of Mitogen-activated protein kinase 14 (Q16539 whole entry): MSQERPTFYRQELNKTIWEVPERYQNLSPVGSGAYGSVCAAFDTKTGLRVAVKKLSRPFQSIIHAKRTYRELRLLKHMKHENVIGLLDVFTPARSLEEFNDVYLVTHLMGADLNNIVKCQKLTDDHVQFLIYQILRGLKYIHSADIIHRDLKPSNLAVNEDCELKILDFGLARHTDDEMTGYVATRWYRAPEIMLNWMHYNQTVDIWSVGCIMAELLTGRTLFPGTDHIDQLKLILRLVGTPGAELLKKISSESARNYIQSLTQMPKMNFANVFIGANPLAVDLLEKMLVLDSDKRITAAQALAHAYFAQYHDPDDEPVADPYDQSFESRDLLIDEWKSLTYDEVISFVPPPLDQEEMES

Row | Structure (SMILES) | IC50 ([1]; read-out: IC50) | Ki ([1]; read-out: Ki) | IC50 [2] | IC50 [3] | IC50 (Substance-K receptor) | IC50 [4] | IC50 [5] | Ki [5] | IC50 ([1]; sf9)
1 | CO[C@@H]1[C@@H](OC)[C@H](C)[C@@](O)(CC(=O)O)O[C@H]1[C@H](C)[C@H]1O[C@@]2(CC[C@@](C)([C@H]3CC[C@@](C)([C@@H]4O[C@@H]([C@H]5O[C@](C)(O)[C@H](C)C[C@@H]5C)C[C@@H]4O[C@@H]4C[C@H](OC)[C@@H](OC)[C@H](C)O4)O3)O2)C[C@H](O)[C@H]1C [MADURAMICIN ACID] | 180 nM | 67 nM | Not Active | Not Active | Not Active | Not Active | Not Active | Not Active | 
2 | COc1c2occc2cc2ccc(=O)oc12 [METHOXSALEN] |  |  | Not Active | Not Active | Not Active | Not Active | Not Active | Not Active | Not Active
3 | C[C@H]1C[C@@H]2[C@H]([C@@H](O)C[C@@]3(C)[C@H]2CC[C@]3(O)C(=O)CO)[C@@]2(C)C=CC(=O)C=C12 [METHYLPREDNISOLONE] |  |  | Not Active | Not Active | Not Active | Not Active | Not Active | Not Active | Not Active
4 | Cc1cccc(C)c1OCC(C)N (centres undefined) [MEXILETINE] |  |  | Not Active | Not Active | Not Active | Not Active | Not Active | Not Active | Not Active
5 | Nc1cc(N2CCCCC2)nc(N)[n+]1[O-] [MINOXIDIL] |  |  | Not Active | Not Active | Not Active | Not Active | Not Active | Not Active | Not Active
6 | CO[C@H]1/C=C/O[C@@]2(C)Oc3c(C)c(O)c4c(O)c(c(/C=N/N5CCN(C6CCCC6)CC5)c(O)c4c3C2=O)NC(=O)/C(C)=C\C=C\[C@H](C)[C@H](O)[C@@H](C)[C@@H](O)[C@@H](C)[C@H](OC(C)=O)[C@@H]1C [RIFAPENTINE] |  |  | Not Active | Not Active | Not Active | Not Active | Not Active | Not Active | Not Active
7 | CCCCOc1cc(CC2CNC(=O)N2)ccc1OC (centres undefined) [RO-201724] |  |  | Not Active | Not Active | Not Active | Not Active | Not Active | Not Active | Not Active
8 | CC[C@@H](C(=O)[C@@H](C)[C@@H](O)[C@H](C)[C@@H]1O[C@@H]([C@@H](CC)C(=O)O)CC[C@@H]1C)[C@H]1O[C@]2(C=C[C@@H](O)[C@]3(CC[C@@](C)([C@H]4CC[C@](O)(CC)[C@H](C)O4)O3)O2)[C@H](C)C[C@@H]1C [SALINOMYCIN] |  |  | Not Active | Not Active | Not Active | Not Active | Not Active | Not Active | Not Active
9 | O=C(Oc1ccccc1C(=O)O)c1ccccc1O [SALSALATE] |  |  | Not Active | Not Active | Not Active | Not Active | Not Active | Not Active | Not Active
10 | O=C(O)c1cn(-c2ccc(F)cc2)c2cc(N3CCNCC3)c(F)cc2c1=O [SARAFLOXACIN] |  |  | Not Active | Not Active | Not Active | Not Active | Not Active | Not Active | Not Active
11 | CN[C@H]1CC[C@@H](c2ccc(Cl)c(Cl)c2)c2ccccc21 [SERTRALINE] |  |  | Not Active | Not Active | Not Active | Not Active |  |  | 
12 | CC(C)NCC(O)c1ccc(NS(C)(=O)=O)cc1 (centres undefined) [SOTALOL] |  |  | Not Active | Not Active | Not Active | Not Active | Not Active | Not Active | Not Active
13 | O.O.O.O.O.O.[Cl-].[Cl-].[Sr+2] [STRONTIUM CHLORIDE HEXAHYDRATE] |  |  | Not Active | Not Active | Not Active | Not Active | Not Active | Not Active | Not Active
14 | O=C1C(CC[S+]([O-])c2ccccc2)C(=O)N(c2ccccc2)N1c1ccccc1 (centres undefined) [SULFINPYRAZONE] |  |  | Not Active | Not Active | Not Active | Not Active | Not Active | Not Active | Not Active
15 | NC(=O)N1C(=O)/C(=C(\O)c2cccs2)c2cc(Cl)ccc21 [TENIDAP] |  |  | Not Active | Not Active | Not Active | Not Active | Not Active | Not Active | Not Active
16 | Clc1ccccc1CN1CCc2sccc2C1 [TICLOPIDINE] |  |  | Not Active | Not Active | Not Active | Not Active | Not Active | Not Active | 
